Source: patent publication US10940139B2, “Compounds that interact with the Ras superfamily for the treatment of cancers, inflammatory diseases, rasopathies, and fibrotic disease” (Shy Therapeutics LLC, priority 2017, dated 2021)

system: MAPK phosphorylation in PANC-1 pancreatic cancer cell line; experiment: MAPK cell-based phosphorylation assay (cell-direct ELISA, EGF stimulation); settings: Homo sapiens
Procedure: Cell lines: Tumor-derived pancreatic cancer cell lines PANC-1 were purchased from ATCC and were maintained according to ATCC recommendation.
Method: Cells were plated at 7500 cells/well density in 96-wells plate, starved over night, and the small molecules to be tested were added to the cells in the final concentration of 30 μM with 0.3% DMSO for 6 hours incubation at 37° C. For IC50 value determination, serial dilutions of compounds were added to cells under the same conditions. Next, cells were stimulated with 1.5 ng/ml EGF for 15 min. followed by cell fixation with 4% Formaldehyde in PBS at RT for 20 min. Phosphorylation level of MAPK was determined by Cell-direct ELISA.
Cell-direct ELISA: For each well, cells were permeabilized with PBS-Triton 0.1%, quenched with H2O2 0.6% in PBS-Triton 0.1%, and probed with anti-phospho-MAPK antibodies (R&D Systems) followed by HRP-conjugated secondary antibody (Jackson Immunoresearch, West Grove, Pa.). Next, a solution 50 μM of the fluorescent substrate AmpliFlu Red (Sigma) was added and incubated at RT for 20 min. At the end of the incubation time, fluorescence was measured at 595 nm on a microplate reader (AF2200; Eppendorf, Inc., Hamburg, Germany).

IC50	Structure (SMILES)
< 2 µM	Oc1nc(-c2ccccn2)nc2c(-c3ccccc3)csc12 [drawing 1074]
2 to 10 µM	Oc1nc(-c2ccccn2)nc2scc(Br)c12 [drawing 1080]
2 to 10 µM	N#Cc1ncn(-c2nc(-c3ccccn3)nc3sc(-c4ccccc4)cc23)n1 [drawing 1083]
2 to 10 µM	O=C(CN1CCN(c2nc(-c3ccccn3)nc3sc(-c4ccccc4)cc23)CC1)N1CCCC1 [drawing 1091]
> 30 µM	COc1ccnc(-c2nc(O)c3ccsc3n2)c1 [drawing 1114]
> 30 µM	COc1cccc(N2CCN(C(=O)c3csc4c(O)nc(-c5ccccn5)nc34)CC2)c1 [drawing 1118]
> 30 µM	Cc1ccccc1N1CCN(C(=O)c2csc3c(O)nc(-c4ccccn4)nc23)CC1 [drawing 1123]

Structure (SMILES)	IC50
Oc1nc(-c2ccccn2)nc2c(-c3ccccc3Cl)csc12 [drawing 1075]	< 2 µM
Oc1nc(-c2ccccn2)nc2sccc12 [drawing 1081]	11 to 30 µM
O=C(c1csc2c(O)nc(-c3ccccn3)nc12)N1CCN(Cc2cccc(O)c2)CC1 [drawing 1125]	> 30 µM

same assay, conditions: Homo sapiens, at 30 μM

Structure (SMILES)	inhibition at 30 µM
O=C(c1csc2c(O)nc(-c3ccccn3)nc12)N1CCC(c2cccnc2)CC1 [drawing 1070]	1 to 25%
O=C(NCCc1cccnc1)c1csc2c(O)nc(-c3ccccn3)nc12 [drawing 1071]	1 to 25%
O=C(c1csc2c(O)nc(-c3ccccn3)nc12)N1CCc2ccccc2CC1 [drawing 1072]	25 to 50%
Nc1nc(O)c2scc(-c3ccccc3Cl)c2n1 [drawing 1073]	1 to 25%
Oc1nc(-c2ccccn2)nc2c(-c3ccccc3)csc12 [drawing 1074]	76 to 100%
Oc1nc(-c2ccccn2)nc2c(-c3ccccc3Cl)csc12 [drawing 1075]	76 to 100%
Oc1nc(-c2ccccn2)nc2[nH]cnc12 [drawing 1076]	1 to 25%
Oc1nc(-c2ccccn2)nc2c1ncn2-c1ccccn1 [drawing 1077]	1 to 25%
Brc1csc2nc(-c3ccccn3)nc(N3CCOCC3)c12 [drawing 1079]	1 to 25%
Oc1nc(-c2ccccn2)nc2scc(Br)c12 [drawing 1080]	76 to 100%
Oc1nc(-c2ccccn2)nc2sccc12 [drawing 1081]	1 to 25%
O=C1CN(c2nc(-c3ccccn3)nc3scc(-c4ccccc4)c23)CCN1 [drawing 1082]	1 to 25%
N#Cc1ncn(-c2nc(-c3ccccn3)nc3sc(-c4ccccc4)cc23)n1 [drawing 1083]	76 to 100%
Cc1nnc(C(Nc2nc(-c3ccccn3)nc3scc(-c4ccccc4)c23)c2ccccc2)n1C (stereo not shown) [drawing 1084]	51 to 75%
Cc1sc2nc(-c3ccccn3)nc(NCCc3nccn3C)c2c1-c1ccccc1 [drawing 1085]	1 to 25%
CCCNC(=O)CN1CCN(c2nc(-c3ccccn3)nc3sc(-c4ccccc4)cc23)CC1 [drawing 1086]	76 to 100%
c1ccc(-c2csc3nc(-c4ccccn4)nc(N4CCN(Cc5cccnc5)CC4)c23)cc1 [drawing 1087]	1 to 25%
c1ccc(-c2csc3nc(-c4ccccn4)nc(N4CCN(CC5CCCO5)CC4)c23)cc1 (stereo not shown) [drawing 1088]	1 to 25%
CN(Cc1cnn(C)c1)c1nc(-c2ccccn2)nc2scc(-c3ccccc3)c12 [drawing 1089]	25 to 50%

Structure (SMILES)	inhibition at 30 µM
CN(CCCc1n[nH]c(N)c1C#N)c1nc(-c2ccccn2)nc2sc(-c3ccccc3)cc12 [drawing 1090]	25 to 50%
O=C(CN1CCN(c2nc(-c3ccccn3)nc3sc(-c4ccccc4)cc23)CC1)N1CCCC1 [drawing 1091]	76 to 100%
CNC(=O)CN1CCN(c2nc(-c3ccccn3)nc3scc(-c4ccccc4)c23)CC1 [drawing 1092]	1 to 25%
O=S1(=O)CCC(N2CCN(c3nc(-c4ccccn4)nc4scc(-c5ccccc5)c34)CC2)C1 (stereo not shown) [drawing 1093]	1 to 25%
CN(CC(=O)N1CCOCC1)c1nc(-c2ccccn2)nc2scc(-c3ccccc3)c12 [drawing 1094]	1 to 25%
CON(C)c1nc(-c2ccccn2)nc2scc(-c3ccccc3)c12 [drawing 1095]	25 to 50%
O=C(CN1CCN(c2nc(-c3ccccn3)nc3scc(-c4ccccc4)c23)CC1)N1CCCCC1 [drawing 1096]	25 to 50%
O=C(CNc1nc(-c2ccccn2)nc2scc(-c3ccccc3)c12)NC1CC1 [drawing 1097]	25 to 50%
CCN(CC)C(=O)CN1CCN(c2nc(-c3ccccn3)nc3scc(-c4ccccc4)c23)CC1 [drawing 1098]	25 to 50%
CC(C)CNC(=O)CN1CCN(c2nc(-c3ccccn3)nc3scc(-c4ccccc4)c23)CC1 [drawing 1099]	1 to 25%
O=S1(=O)CCC(Nc2nc(-c3ccccn3)nc3scc(-c4ccccc4)c23)C1 (stereo not shown) [drawing 1100]	1 to 25%
c1ccc(-c2csc3nc(-c4ccccn4)nc(N4CCN(CCN5CCCC5)CC4)c23)cc1 [drawing 1101]	76 to 100%
OC1CCCN(c2nc(-c3ccccn3)nc3scc(-c4ccccc4)c23)C1 (stereo not shown) [drawing 1102]	51 to 75%
OC1CCN(c2nc(-c3ccccn3)nc3scc(-c4ccccc4)c23)CC1 [drawing 1103]	1 to 25%
O=C(CN1CCN(c2nc(-c3ccccn3)nc3scc(-c4ccccc4)c23)CC1)N1CCCC1 [drawing 1104]	1 to 25%
O=C(C1CCN(c2nc(-c3ccccn3)nc3scc(-c4ccccc4)c23)CC1)N1CCCCC1 [drawing 1105]	1 to 25%
c1ccc(-c2csc3nc(-c4ccccn4)nc(NN4CCOCC4)c23)cc1 [drawing 1106]	1 to 25%
NC(=O)C1CCCN(c2nc(-c3ccccn3)nc3scc(-c4ccccc4)c23)C1 (stereo not shown) [drawing 1107]	1 to 25%
COCCNc1nc(-c2ccccn2)nc2scc(-c3ccccc3)c12 [drawing 1108]	76 to 100%

Structure (SMILES)	inhibition at 30 µM
CC(=O)N1CCN(c2nc(-c3ccccn3)nc3scc(-c4ccccc4)c23)CC1 [drawing 1109]	25 to 50%
O=C1CCN(c2nc(-c3ccccn3)nc3scc(-c4ccccc4)c23)CC1 [drawing 1110]	25 to 50%
NC(=O)C1CCN(c2nc(-c3ccccn3)nc3scc(-c4ccccc4)c23)CC1 [drawing 1111]	1 to 25%
Nc1nc(O)c2nc[nH]c2n1 [drawing 1112]	1 to 25%
Clc1csc2nc(-c3ccccn3)nc(N3CCOCC3)c12 [drawing 1113]	1 to 25%
COc1ccnc(-c2nc(O)c3ccsc3n2)c1 [drawing 1114]	51 to 75%
COCCC(C)Nc1nc(-c2ccccn2)nc2sccc12 (stereo not shown) [drawing 1115]	25 to 50%
Oc1nc(-c2ccccn2)nc2c(C3CCNCC3)csc12 [drawing 1116]	1 to 25%
COc1ccccc1N1CCN(C(=O)c2csc3c(O)nc(-c4ccccn4)nc23)CC1 [drawing 1117]	1 to 25%
COc1cccc(N2CCN(C(=O)c3csc4c(O)nc(-c5ccccn5)nc34)CC2)c1 [drawing 1118]	76 to 100%
O=C(c1csc2c(O)nc(-c3ccccn3)nc12)N1CCN(c2ccccc2Cl)CC1 [drawing 1119]	1 to 25%
O=C(c1csc2c(O)nc(-c3ccccn3)nc12)N1CCN(c2cccc(Cl)c2)CC1 [drawing 1120]	25 to 50%
O=C(c1csc2c(O)nc(-c3ccccn3)nc12)N1CCN(c2ccccc2F)CC1 [drawing 1121]	1 to 25%
N#Cc1ccccc1N1CCN(C(=O)c2csc3c(O)nc(-c4ccccn4)nc23)CC1 [drawing 1122]	1 to 25%
Cc1ccccc1N1CCN(C(=O)c2csc3c(O)nc(-c4ccccn4)nc23)CC1 [drawing 1123]	25 to 50%
COc1ccc(CN2CCN(C(=O)c3csc4c(O)nc(-c5ccccn5)nc34)CC2)cc1 [drawing 1124]	1 to 25%
O=C(c1csc2c(O)nc(-c3ccccn3)nc12)N1CCN(Cc2cccc(O)c2)CC1 [drawing 1125]	51 to 75%
COc1cccc(C2CN(C(=O)c3csc4c(O)nc(-c5ccccn5)nc34)CCO2)c1 (stereo not shown) [drawing 1126]	1 to 25%
O=C(c1csc2c(O)nc(-c3ccccn3)nc12)N1CCOC(c2ccc(Cl)cc2)C1 (stereo not shown) [drawing 1127]	1 to 25%
